Results from the supplement of paper PMC10627819.
Values after ≈ are worked out from the molar mass of the structure shown.

Columns and labels:
B. subtilis 168 [1] = assay: fitness (endpoint OD595 vs no drug) (fraction); higher = more growth
Summary of the method: (§1)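 At 37 °C, bacteria in TSB, LB Lennox or CY were grown in 384-well plates from a starting OD595 of 0.01. OD595 was measured every 30 min for 14 h, with the first reading used as background. Fitness is the optical density at the switch to stationary phase as a fraction of the robust mean of no-drug control wells, capped at 1.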

S. aureus DSM 20231 [2] = assay: as above
Summary of the method: as §1

S. aureus Newman [3] = assay: as above
Summary of the method: as §1

S. pneumoniae D39V [4] = assay: as above
Summary of the method: as §1

B. subtilis 168 [5] = assay: Bliss interaction score (quartile over a dose matrix) (fitness difference); higher = more antagonism (negative = synergy)
Summary of the method: (§2)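 Quartiles of the Bliss score were taken over technical, biological and donor/recipient replicates. That score is observed fitness minus the product of the single-drug fitness values, which were inferred from combination data. Fitness itself is OD595 at entry into stationary phase divided by the plate's robust no-drug mean, with a cap at 1.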

S. aureus DSM 20231 [6] = assay: as above
Summary of the method: as §2

S. aureus Newman [7] = assay: as above
Summary of the method: as §2

S. pneumoniae D39V [8] = assay: as above
Summary of the method: as §2

B. subtilis 168 [9] = test system: B. subtilis 168
S. aureus DSM 20231 [10] = test system: S. aureus DSM 20231
S. aureus Newman [11] = test system: S. aureus Newman
S. pneumoniae D39V [12] = test system: S. pneumoniae D39V
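Wherever Bliss interaction score (quartile over a dose matrix) is given: first quartile when negative (synergy) and third quartile when positive (antagonism).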

COc1c(N2C[C@@H]3CCCN[C@@H]3C2)c(F)cc2c(=O)c(C(=O)O)cn(C3CC3)c12 [Moxifloxacin] + Cc1onc(-c2ccccc2)c1C(=O)N[C@@H]1C(=O)N2[C@@H]1SC(C)(C)[C@@H]2C(=O)O [Oxacillin]
Conditions | fitness
B. subtilis 168 [1], first compound 0.0312 µg/mL, partner 0.0078 µg/mL | 0.064
B. subtilis 168 [1], first compound 0.0312 µg/mL, partner 0.0155 µg/mL | 0.0573
B. subtilis 168 [1], first compound 0.0312 µg/mL, partner 0.031 µg/mL | 0.0475
B. subtilis 168 [1], first compound 0.0625 µg/mL, partner 0.0078 µg/mL | 0.0466
B. subtilis 168 [1], first compound 0.0625 µg/mL, partner 0.0155 µg/mL | 0.037
B. subtilis 168 [1], first compound 0.0625 µg/mL, partner 0.031 µg/mL | 0.0491
B. subtilis 168 [1], first compound 0.125 µg/mL, partner 0.0078 µg/mL | 0.0548
B. subtilis 168 [1], first compound 0.125 µg/mL, partner 0.0155 µg/mL | 0.0482
B. subtilis 168 [1], first compound 0.125 µg/mL, partner 0.031 µg/mL | 0.0479
B. subtilis 168 [1], first compound 2 µg/mL, partner 0.002 µg/mL | 0.0356
B. subtilis 168 [1], first compound 2 µg/mL, partner 0.004 µg/mL | 0.0464
B. subtilis 168 [1], first compound 2 µg/mL, partner 0.008 µg/mL | 0.0465
B. subtilis 168 [1], first compound 4 µg/mL, partner 0.002 µg/mL | 0.0347
B. subtilis 168 [1], first compound 4 µg/mL, partner 0.004 µg/mL | 0.0433
B. subtilis 168 [1], first compound 4 µg/mL, partner 0.008 µg/mL | 0.0406
B. subtilis 168 [1], first compound 8 µg/mL, partner 0.002 µg/mL | 0.0147
B. subtilis 168 [1], first compound 8 µg/mL, partner 0.004 µg/mL | 0.021
B. subtilis 168 [1], first compound 8 µg/mL, partner 0.008 µg/mL | 0.0219
S. aureus DSM 20231 [2], first compound 0.0075 µg/mL, partner 0.0156 µg/mL | 0.665
S. aureus DSM 20231 [2], first compound 0.0075 µg/mL, partner 0.0312 µg/mL | 0.623
S. aureus DSM 20231 [2], first compound 0.0075 µg/mL, partner 0.0625 µg/mL | 0.483
S. aureus DSM 20231 [2], first compound 0.015 µg/mL, partner 0.0156 µg/mL | 0.621
S. aureus DSM 20231 [2], first compound 0.015 µg/mL, partner 0.0312 µg/mL | 0.576
S. aureus DSM 20231 [2], first compound 0.015 µg/mL, partner 0.0625 µg/mL | 0.475
S. aureus DSM 20231 [2], first compound 0.03 µg/mL, partner 0.0156 µg/mL | 0.561
S. aureus DSM 20231 [2], first compound 0.03 µg/mL, partner 0.0312 µg/mL | 0.527
S. aureus DSM 20231 [2], first compound 0.03 µg/mL, partner 0.0625 µg/mL | 0.417
S. aureus Newman [3], first compound 0.0075 µg/mL, partner 0.0156 µg/mL | 0.676
S. aureus Newman [3], first compound 0.0075 µg/mL, partner 0.0312 µg/mL | 0.633
S. aureus Newman [3], first compound 0.0075 µg/mL, partner 0.0625 µg/mL | 0.515
S. aureus Newman [3], first compound 0.015 µg/mL, partner 0.0156 µg/mL | 0.575
S. aureus Newman [3], first compound 0.015 µg/mL, partner 0.0312 µg/mL | 0.487
S. aureus Newman [3], first compound 0.015 µg/mL, partner 0.0625 µg/mL | 0.417
S. aureus Newman [3], first compound 0.03 µg/mL, partner 0.0156 µg/mL | 0.116
S. aureus Newman [3], first compound 0.03 µg/mL, partner 0.0312 µg/mL | 0.0437
S. aureus Newman [3], first compound 0.03 µg/mL, partner 0.0625 µg/mL | 0.0665
S. pneumoniae D39V [4], first compound 0.0037 µg/mL, partner 0.01 µg/mL | 0.885
S. pneumoniae D39V [4], first compound 0.0037 µg/mL, partner 0.02 µg/mL | 0.769
S. pneumoniae D39V [4], first compound 0.0037 µg/mL, partner 0.04 µg/mL | 0.191
S. pneumoniae D39V [4], first compound 0.005 µg/mL, partner 0.01 µg/mL | 0.991
S. pneumoniae D39V [4], first compound 0.005 µg/mL, partner 0.02 µg/mL | 1
S. pneumoniae D39V [4], first compound 0.0075 µg/mL, partner 0.01 µg/mL | 0.9
S. pneumoniae D39V [4], first compound 0.0075 µg/mL, partner 0.02 µg/mL | 0.784
S. pneumoniae D39V [4], first compound 0.0075 µg/mL, partner 0.04 µg/mL | 0.198
S. pneumoniae D39V [4], first compound 0.01 µg/mL, partner 0.01 µg/mL | 0.993
S. pneumoniae D39V [4], first compound 0.01 µg/mL, partner 0.02 µg/mL | 0.983
S. pneumoniae D39V [4], first compound 0.015 µg/mL, partner 0.01 µg/mL | 0.84
S. pneumoniae D39V [4], first compound 0.015 µg/mL, partner 0.02 µg/mL | 0.814
S. pneumoniae D39V [4], first compound 0.015 µg/mL, partner 0.04 µg/mL | 0.276
S. pneumoniae D39V [4], first compound 0.02 µg/mL, partner 0.01 µg/mL | 0.993
S. pneumoniae D39V [4], first compound 0.02 µg/mL, partner 0.02 µg/mL | 0.978

fitness, one replicate
Conditions | partner 0.0156 µg/mL | partner 0.0312 µg/mL | partner 0.0625 µg/mL | partner 0.075 µg/mL | partner 0.15 µg/mL | partner 0.3 µg/mL
B. subtilis 168 [1], first compound 0.0312 µg/mL | – | – | – | 0.0346 | 0.0314 | 0.0247
B. subtilis 168 [1], first compound 0.0625 µg/mL | – | – | – | 0.0324 | 0.0252 | 0.0441
B. subtilis 168 [1], first compound 0.125 µg/mL | – | – | – | 0.0269 | 0.0127 | 0.018
S. aureus DSM 20231 [2], first compound 0.06 µg/mL | 0.628 | 0.559 | 0.524 | – | – | –
S. aureus DSM 20231 [2], first compound 0.12 µg/mL | 0.441 | 0.379 | 0.37 | – | – | –

Conditions | Bliss interaction score
B. subtilis 168 [5] | 0.0214
S. aureus DSM 20231 [6] | 0.0441
S. aureus Newman [7] | -0.0642
S. pneumoniae D39V [8] | 0.0911

O=C1CN(/N=C/c2ccc([N+](=O)[O-])o2)C(=O)N1 [Nitrofurantoin]
Conditions | MIC [µg/mL]
B. subtilis 168 [9] | 16 (≈ 67.2 µM)
S. aureus DSM 20231 [10] | 8.89 (≈ 37.3 µM)
S. aureus Newman [11] | 10 (≈ 42 µM)
S. pneumoniae D39V [12] | 16 (≈ 67.2 µM)

S. pneumoniae D39V [4]
Conditions | fitness
2 µg/mL | 0.941
4 µg/mL | 0.888
8 µg/mL | 0.724

C/C(=C\C(=O)OCCCCCCCCC(=O)O)C[C@@H]1OC[C@H](C[C@@H]2O[C@H]2[C@@H](C)[C@H](C)O)[C@@H](O)[C@H]1O [Pseudomonic acid]
Conditions | MIC [µg/mL]
S. pneumoniae D39V [12] | 0.25 (≈ 0.499 µM)

S. pneumoniae D39V [4]
Conditions | fitness
0.03 µg/mL | 0.971
0.06 µg/mL | 0.822
0.12 µg/mL | 0.443

CCCCCCCCCC(=O)N[C@H]1[C@H](Oc2c3cc4cc2Oc2ccc(cc2Cl)[C@@H](O[C@@H]2O[C@H](CO)[C@@H](O)[C@H](O)[C@H]2NC(C)=O)[C@@H]2NC(=O)[C@H](NC(=O)[C@@H]4NC(=O)[C@H]4NC(=O)[C@@H](Cc5ccc(c(Cl)c5)O3)NC(=O)[C@H](N)c3ccc(O)c(c3)Oc3cc(O)cc4c3)c3ccc(O)c(c3)-c3c(O[C@H]4O[C@H](CO)[C@@H](O)[C@H](O)[C@@H]4O)cc(O)cc3[C@@H](C(=O)O)NC2=O)O[C@H](CO)[C@@H](O)[C@@H]1O [Teicoplanin]
main component drawn
Conditions | MIC [µg/mL]
S. aureus DSM 20231 [10] | 0.7 (≈ 0.372 µM)
S. aureus Newman [11] | 0.7 (≈ 0.372 µM)
S. pneumoniae D39V [12] | 0.062 (≈ 0.033 µM)

fitness, main component drawn
Conditions | 0.1562 µg/mL | 0.3125 µg/mL | 0.625 µg/mL | 1.25 µg/mL
S. aureus DSM 20231 [2] | ≥ 1 | ≥ 1 | ≥ 1 | ≥ 1
S. aureus Newman [3] | ≥ 1 | ≥ 1 | ≥ 1 | –

COc1cc(Cc2cnc(N)nc2N)cc(OC)c1OC [Trimethoprim]
Conditions | MIC [µg/mL]
B. subtilis 168 [9] | 2.5 (≈ 8.61 µM)
S. pneumoniae D39V [12] | 4 (≈ 13.8 µM)

fitness
Conditions | 0.125 µg/mL | 0.25 µg/mL | 0.5 µg/mL | 1 µg/mL | 2 µg/mL
B. subtilis 168 [1] | 0.623 | 0.478 | 0.45 | 0.334 | 0.31
S. aureus DSM 20231 [2] | 0.8 | 0.662 | 0.143 | – | –
S. aureus Newman [3] | 0.857 | 0.725 | 0.248 | – | –
S. pneumoniae D39V [4] | – | – | 0.924 | 0.658 | 0.306

CN[C@H](CC(C)C)C(=O)N[C@H]1C(=O)N[C@@H](CC(N)=O)C(=O)N[C@H]2C(=O)N[C@H]3C(=O)N[C@H](C(=O)N[C@H](C(=O)O)c4cc(O)cc(O)c4-c4cc3ccc4O)[C@H](O)c3ccc(c(Cl)c3)Oc3cc2cc(c3O[C@@H]2O[C@H](CO)[C@@H](O)[C@H](O)[C@H]2O[C@H]2C[C@](C)(N)[C@H](O)[C@H](C)O2)Oc2ccc(cc2Cl)[C@H]1O [Vancomycin]
Conditions | MIC [µg/mL]
B. subtilis 168 [9] | 0.375 (≈ 0.259 µM)
S. pneumoniae D39V [12] | 0.3 (≈ 0.207 µM)

Conditions | fitness
B. subtilis 168 [1], 0.0468 µg/mL | 0.997
B. subtilis 168 [1], 0.0935 µg/mL | 0.924
B. subtilis 168 [1], 0.0938 µg/mL | 0.853
B. subtilis 168 [1], 0.187 µg/mL | 0.0481
B. subtilis 168 [1], 0.1875 µg/mL | 0.169
B. subtilis 168 [1], 0.375 µg/mL | 0.0404
S. aureus DSM 20231 [2], 0.1875 µg/mL | ≥ 1
S. aureus DSM 20231 [2], 0.375 µg/mL | ≥ 1
S. aureus DSM 20231 [2], 0.5 µg/mL | 0.981
S. aureus DSM 20231 [2], 0.75 µg/mL | ≥ 1
S. aureus DSM 20231 [2], 1 µg/mL | 0.977
S. aureus DSM 20231 [2], 2 µg/mL | 0.992
S. aureus Newman [3], 0.1875 µg/mL | ≥ 1
S. aureus Newman [3], 0.375 µg/mL | 0.99
S. aureus Newman [3], 0.75 µg/mL | 0.999
S. pneumoniae D39V [4], 0.125 µg/mL | 0.97
S. pneumoniae D39V [4], 0.25 µg/mL | 0.489
S. pneumoniae D39V [4], 0.5 µg/mL | 0.159
